Test results taken from patent US10479780B2, “Aminopyrazole derivatives” (Chugai Seiyaku Kabushiki Kaisha, priority 2015, dated 2019).

Key:
Assay type in all cases: biochemical
human Lck enzyme = molecular target: T1, human Lck enzyme (Homo sapiens, UniProt P06239); experiment: Lck enzyme inhibitory activity (time-resolved fluorometry, biotinylated peptide phosphorylation); details: read-out: LCK_IC50
T1 construct: purchased Carna Biosciences, Inc. 08-170
Procedure, shortened: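 Readout pairs a europium cryptate-labelled anti-phosphotyrosine antibody with XL665-streptavidin, measured by time-resolved fluorescence. IC50 derived from percent inhibition against untreated controls.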

human Src enzyme = molecular target: T2, human Src enzyme (Homo sapiens, UniProt P12931); experiment: Src enzyme inhibitory activity (time-resolved fluorometry, biotinylated peptide phosphorylation); details: read-out: SRC_IC50
T2 construct: purchased Carna Biosciences, Inc. 08-173
T2 sequence (P12931 whole entry): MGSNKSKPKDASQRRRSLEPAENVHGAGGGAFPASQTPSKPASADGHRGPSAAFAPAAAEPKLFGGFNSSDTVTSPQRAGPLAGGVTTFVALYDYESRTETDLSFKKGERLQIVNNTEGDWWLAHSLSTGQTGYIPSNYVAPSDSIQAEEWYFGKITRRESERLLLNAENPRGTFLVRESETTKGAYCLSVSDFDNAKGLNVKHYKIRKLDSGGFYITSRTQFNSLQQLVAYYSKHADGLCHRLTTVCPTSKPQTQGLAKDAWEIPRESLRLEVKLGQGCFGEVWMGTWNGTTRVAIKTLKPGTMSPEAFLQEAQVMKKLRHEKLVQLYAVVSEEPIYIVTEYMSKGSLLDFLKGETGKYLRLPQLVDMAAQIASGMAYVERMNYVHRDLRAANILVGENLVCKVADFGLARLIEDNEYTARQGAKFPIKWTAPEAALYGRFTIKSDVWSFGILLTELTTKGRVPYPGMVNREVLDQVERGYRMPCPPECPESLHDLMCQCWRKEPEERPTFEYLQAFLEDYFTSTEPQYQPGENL
Procedure, shortened: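 Compounds were tested for blocking tyrosine phosphorylation of a biotinylated peptide substrate by recombinant human Src. Phosphorylated product was quantified by time-resolved fluorometry using europium cryptate and XL665 conjugates, and IC50 was calculated against the compound-free control.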

human Yes1 enzyme = molecular target: T3, human Yes1 enzyme (Homo sapiens, UniProt P07947); experiment: Yes1 enzyme inhibitory activity (time-resolved fluorometry, biotinylated peptide phosphorylation); details: read-out: YES_IC50
T3 construct: made in house
T3 sequence (P07947 whole entry): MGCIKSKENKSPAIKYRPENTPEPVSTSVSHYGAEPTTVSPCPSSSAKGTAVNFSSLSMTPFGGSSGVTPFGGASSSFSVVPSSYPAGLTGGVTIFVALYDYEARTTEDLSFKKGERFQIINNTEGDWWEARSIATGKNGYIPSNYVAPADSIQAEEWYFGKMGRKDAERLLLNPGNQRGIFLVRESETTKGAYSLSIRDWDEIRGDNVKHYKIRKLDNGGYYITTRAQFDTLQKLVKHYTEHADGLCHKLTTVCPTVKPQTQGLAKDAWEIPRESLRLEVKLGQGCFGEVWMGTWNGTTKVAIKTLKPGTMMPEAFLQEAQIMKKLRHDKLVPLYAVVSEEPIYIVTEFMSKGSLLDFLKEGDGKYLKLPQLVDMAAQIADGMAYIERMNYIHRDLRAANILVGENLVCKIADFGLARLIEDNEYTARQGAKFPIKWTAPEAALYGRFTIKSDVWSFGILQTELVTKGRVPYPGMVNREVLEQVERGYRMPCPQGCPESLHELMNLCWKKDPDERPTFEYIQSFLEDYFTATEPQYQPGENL
Procedure, shortened: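 Inhibition was expressed against a compound-free control to give IC50, using TR-FRET read-out (Eu-cryptate anti-pTyr antibody, streptavidin-XL665).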

T1 sequence (P06239 whole entry): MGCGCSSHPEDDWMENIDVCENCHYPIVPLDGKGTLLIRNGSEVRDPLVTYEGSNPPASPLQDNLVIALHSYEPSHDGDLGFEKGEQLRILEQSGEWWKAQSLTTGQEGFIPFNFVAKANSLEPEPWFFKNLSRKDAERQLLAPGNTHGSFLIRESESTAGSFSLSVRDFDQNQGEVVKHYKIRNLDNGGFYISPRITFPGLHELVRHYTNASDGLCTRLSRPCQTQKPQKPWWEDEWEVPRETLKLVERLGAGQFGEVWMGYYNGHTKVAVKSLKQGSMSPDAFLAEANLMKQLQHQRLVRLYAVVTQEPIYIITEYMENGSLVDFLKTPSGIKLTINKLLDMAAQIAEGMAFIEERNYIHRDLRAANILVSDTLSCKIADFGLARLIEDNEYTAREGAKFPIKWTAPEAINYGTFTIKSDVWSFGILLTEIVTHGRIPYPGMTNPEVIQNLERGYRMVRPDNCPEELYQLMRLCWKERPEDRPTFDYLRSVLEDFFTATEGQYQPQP

| Structure (SMILES) | IC50 (human Lck enzyme) [nM] | IC50 (human Src enzyme) [nM] | IC50 (human Yes1 enzyme) [nM] |
| --- | --- | --- | --- |
| Cc1cc(-n2ncc(C(=O)c3cc4cc(OC5CCN(C6CS(=O)(=O)C6)CC5)c(Br)cc4[nH]3)c2N)ccc1Oc1ccccc1F [Example 5-1-227, [5-amino-1-[4-(2-fluorophenoxy)-3-methylphenyl]pyrazol-4-yl]-[6-bromo-5-[1-(1,1-dioxothietan-3-yl)piperidin-4-yl]oxy-1H-indol-2-yl]methanone] | 46 | 560 | 3.9 |
| Cc1cc(-n2ncc(C(=O)c3cc4cc(OC5CCN(C6CCC6)CC5)c(NS(C)(=O)=O)cc4[nH]3)c2N)ccc1Oc1ccccc1F [Example 5-1-231, N-[2-[5-amino-1-[4-(2-fluorophenoxy)-3-methylphenyl]pyrazole-4-carbonyl]-5-(1-cyclobutylpiperidin-4-yl)oxy-1H-indol-6-yl] methanesulfonamide] | 72 | 610 | 1.7 |
| Cc1cc(-n2ncc(C(=O)c3cc4cc(OC5CCN(C6CCC6)CC5)c(N)cc4[nH]3)c2N)ccc1Oc1ccccc1F [Example 5-1-232, [6-amino-5-(1-cyclobutylpiperidin-4-yl)oxy-1H-indol-2-yl]-[5-amino-1-[4-(2-fluorophenoxy)-3-methylphenyl]pyrazol-4-yl]methanone] | 30 | 230 | 1.4 |
| Cc1cc(-n2ncc(C(=O)c3cc4cc(OC5CCN(C6CCC6)CC5)c(F)cc4[nH]3)c2N)ccc1Oc1ccccc1F [Example 5-1-234, [5-amino-1-[4-(2-fluorophenoxy)-3-methylphenyl]pyrazol-4-yl]-[5-(1-cyclobutylpiperidin-4-yl)oxy-6-fluoro-1H-indol-2-yl]methanone] | 73 | 490 | 3.2 |
| Cc1cc(-n2ncc(C(=O)c3cc4cc(OC5CCN(C6CCC6)CC5)c(Cl)cc4[nH]3)c2N)ccc1Oc1ccccc1F [Example 5-1-235, [5-amino-1-[4-(2-fluorophenoxy)-3-methylphenyl]pyrazol-4-yl]-[6-chloro-5-(1-cyclobutylpiperidin-4-yl)oxy-1H-indol-2-yl] methanone] | 85 | 430 | 2.9 |
| Cc1cc(-n2ncc(C(=O)c3cc4cc(OC5CCN(C(C)C)CC5)c(-c5cnn(C)c5)cc4[nH]3)c2N)ccc1Oc1ccccc1F [Example 5-1-236, (5-amino-1-(4-(2-fluorophenoxy)-3-methylphenyl)-1H-pyrazol-4-yl)(5-((1-isopropylpiperidin-4-yl)oxy)-6-(1-methyl-1H-pyrazol-4-yl)-1H-indol-2-yl)methanone] | 41 | 140 | 1.5 |
| Cc1cc(-n2ncc(C(=O)c3cc4cc(OC[C@H](O)CO)c(Br)cc4[nH]3)c2N)ccc1Oc1ccccc1F [Example 5-1-237, (R)-(5-amino-1-(4-(2-fluorophenoxy)-3-methylphenyl)-1H-pyrazol-4-yl)(6-bromo-5-(2,3-dihydroxypropoxy)-1H-indol-2-yl)methanone] | 36 | 180 | 1.5 |
| Cc1cc(-n2ncc(C(=O)c3cc4cc(OC5CCN(C(C)C)CC5)c(-c5cccs5)cc4[nH]3)c2N)ccc1Oc1ccccc1F [Example 5-1-238, [5-amino-1-[4-(2-fluorophenoxy)-3-methylphenyl]pyrazol-4-yl]-[5-(1-propan-2-ylpiperidin-4-yl)oxy-6-thiophen-2-yl-1H-indol-2-yl]methanone] | 340 | 860 | 8.1 |
| Cc1cc(-n2ncc(C(=O)c3cc4cc(OC[C@H](O)CO)c(NS(C)(=O)=O)cc4[nH]3)c2N)ccc1Oc1ccccc1F [Example 5-1-242, (R)—N-(2-(5-amino-1-(4-(2-fluorophenoxy)-3-methylphenyl)-1H-pyrazole-4-carbonyl)-5-(2,3-dihydroxypropoxy)-1H-indol-6-yl)methanesulfonamide] | 160 | 500 | 1.9 |
| Cc1cc(Oc2ccccc2F)ccc1-n1ncc(C(=O)c2cc3cc(OCC(F)F)c(N4C(=O)OC[C@H]4Cc4ccccc4)cc3[nH]2)c1N [Example 5-1-244, (4R)-3-[2-[5-amino-1-[4-(2-fluorophenoxy)-2-methylphenyl]pyrazole-4-carbonyl]-5-(2,2-difluoroethoxy)-1H-indol-6-yl]-4-benzyl-1,3-oxazolidin-2-one] | 40 | 18 | 9.9 |

Now those with a lower IC50 (human Lck enzyme), led by results:

| IC50 (human Lck enzyme) [nM] | IC50 (human Src enzyme) [nM] | IC50 (human Yes1 enzyme) [nM] | Structure (SMILES) |
| --- | --- | --- | --- |
| 7.2 | 7.4 | 1.5 | Cc1cc(Oc2c(F)cccc2F)ncc1-n1ncc(C(=O)c2cc3cc(OC4CCN(C5CCCC5)CC4)c(Br)cc3[nH]2)c1N [Example 5-1-223, [5-amino-1-[6-(2,6-difluorophenoxy)-4-methylpyridin-3-yl]pyrazol-4-yl]-[6-bromo-5-(1-cyclopentylpiperidin-4-yl)oxy-1H-indol-2-yl] methanone] |
| 6.3 | 17 | 0.57 | Cc1cc(Oc2c(F)cccc2F)ncc1-n1ncc(C(=O)c2cc3cc(OC4CCN(C5CC5)CC4)c(Br)cc3[nH]2)c1N [Example 5-1-224, [5-amino-1-[6-(2,6-difluorophenoxy)-4-methylpyridin-3-yl]pyrazol-4-yl]-[6-bromo-5-(1-cyclopropylpiperidin-4-yl)oxy-1H-indol-2-yl] methanone] |
| 12 | 89 | 0.46 | Cc1cc(-n2ncc(C(=O)c3cc4cc(OC5CCN(CCO)CC5)c(Br)cc4[nH]3)c2N)ccc1Oc1ccccc1F [Example 5-1-225, [5-amino-1-[4-(2-fluorophenoxy)-3-methylphenyl]pyrazol-4-yl]-[6-bromo-5-[1-(2-hydroxyethyl)piperidin-4-yl]oxy-1H-indol-2-yl]methanone] |
| 2 | 3.3 | 0.34 | Cc1cc(Oc2c(F)cccc2F)ncc1-n1ncc(C(=O)c2cc3cc(OC4CCN(CCO)CC4)c(Br)cc3[nH]2)c1N [Example 5-1-226, [5-amino-1-[6-(2,6-difluorophenoxy)-4-methylpyridin-3-yl]pyrazol-4-yl]-[6-bromo-5-[1-(2-hydroxyethyl)piperidin-4-yl]oxy-1H-indol-2-yl]methanone] |
| 3.1 | 13 | 1.3 | Cc1cc(Oc2c(F)cccc2F)ncc1-n1ncc(C(=O)c2cc3cc(OC4CCN(C5CS(=O)(=O)C5)CC4)c(Br)cc3[nH]2)c1N [Example 5-1-228, [5-amino-1-[6-(2,6-difluorophenoxy)-4-methylpyridin-3-yl]pyrazol-4-yl]-[6-bromo-5-[1-(1,1-dioxothietan-3-yl)piperidin-4-yl]oxy-1H-indol-2-yl]methanone] |
| 2.4 | 6.1 | 0.77 | Cc1cc(Oc2c(F)cccc2F)ncc1-n1ncc(C(=O)c2cc3cc(OC4CCN(C(C)C)CC4)c(C4CCN(S(C)(=O)=O)CC4)cc3[nH]2)c1N [Example 5-1-229, (5-amino-1-(6-(2,6-difluorophenoxy)-4-methylpyridin-3-yl)-1H-pyrazol-4-yl)(5-((1-isopropylpiperidin-4-yl)oxy)-6-(1-(methylsulfonyl)piperidin-4-yl)-1H-indol-2-yl)methanone] |
| 7 | 95 | 0.68 | Cc1cc(-n2ncc(C(=O)c3cc4cc(OC5CCN(C(C)C)CC5)c(C5CCN(S(C)(=O)=O)CC5)cc4[nH]3)c2N)ccc1Oc1ccccc1F [Example 5-1-230, [5-amino-1-[4-(2-fluorophenoxy)-3-methylphenyl]pyrazol-4-yl]-[6-(1-methylsulfonylpiperidin-4-yl)-5-(1-propan-2-ylpiperidin-4-yl)oxy-1H-indol-2-yl]methanone] |
| 21 | 340 | 0.92 | Cc1cc(-n2ncc(C(=O)c3cc4cc(OC5CCN(C6CCC6)CC5)c(N5C(=O)NC(C)(C)C5=O)cc4[nH]3)c2N)ccc1Oc1ccccc1F [Example 5-1-233, 3-(2-(5-amino-1-(4-(2-fluorophenoxy)-3-methylphenyl)-1H-pyrazole-4-carbonyl)-5-((1-cyclobutylpiperidin-4-yl)oxy)-1H-indol-6-yl)-5,5-dimethylimidazolidine-2,4-dione] |
| 16 | 40 | 5 | Cc1cc(Oc2c(F)cccc2F)ncc1-n1ncc(C(=O)c2cc3cc(OC4CCN(C(C)C)CC4)c(-c4cccs4)cc3[nH]2)c1N [Example 5-1-239, [5-amino-1-[6-(2,6-difluorophenoxy)-4-methylpyridin-3-yl]pyrazol-4-yl]-[5-(1-propan-2-ylpiperidin-4-yl)oxy-6-thiophen-2-yl-1H-indol-2-yl]methanone] |
| 19 | 75 | 2 | Cc1cc(-n2ncc(C(=O)c3cc4cc(OC5CCN(C(C)C)CC5)c(-c5cncnc5)cc4[nH]3)c2N)ccc1Oc1ccccc1F [Example 5-1-240, [5-amino-1-[4-(2-fluorophenoxy)-3-methylphenyl]pyrazol-4-yl]-[5-(1-propan-2-ylpiperidin-4-yl)oxy-6-pyrimidin-5-yl-1H-indol-2-yl]methanone] |
| 6.1 | 5.5 | 1.8 | Cc1cc(Oc2c(F)cccc2F)ncc1-n1ncc(C(=O)c2cc3cc(OC4CCN(C(C)C)CC4)c(-c4cncnc4)cc3[nH]2)c1N [Example 5-1-241, [5-amino-1-[6-(2,6-difluorophenoxy)-4-methylpyridin-3-yl]pyrazol-4-yl]-[5-(1-propan-2-ylpiperidin-4-yl)oxy-6-pyrimidin-5-yl-1H-indol-2-yl]methanone] |
